We go through 25 compounds from publication PMC6429263, “Evolution and Antibacterial Evaluation of 8-Hydroxy-cycloberberine Derivatives as a Novel Family of Antibacterial Agents Against MRSA” (Molecules, 2019).

Where “and” joins values, the source holds several entries; their conditions need not be identical. Equal values may be shown once. Where a name gives a salt, the structure may show the parent alone.

The subject of one series is MSSA ATCC 29213. As to the kind of experiment: MIC, agar dilution, MSSA ATCC 29213. Format: cell-based, S. aureus. The following applies: Staphylococcus aureus; MSSA ATCC 29213; read-out: MIC.
The subject of a further series is MSSA 15. As to the kind of experiment: MIC, agar dilution, MSSA 15 (clinical isolate). The following applies: Staphylococcus aureus; MSSA 15, isolated from patients in China; read-out: MIC. Format: cell-based, S. aureus.
The next series relates to MSSA 16-1. As to the kind of experiment: MIC, agar dilution, MSSA 16-1 (clinical isolate). The following applies: Staphylococcus aureus; MSSA 16-1, isolated from patients in China; read-out: MIC. The class given is cell-based, S. aureus. On the technique in general: Agar dilution tests growth on a series of plates holding different concentrations.
A further series relates to MSSE ATCC 12228. As to the kind of experiment: MIC, agar dilution, MSSE ATCC 12228. The class given is cell-based, S. epidermidis. Conditions: Staphylococcus epidermidis, ATCC12228; MSSE ATCC 12228; read-out: MIC.
Another series relates to MSSE 16-5. As to the kind of experiment: MIC, agar dilution, MSSE 16-5 (clinical isolate). The following applies: Staphylococcus epidermidis; MSSE 16-5, isolated from patients in China; read-out: MIC. Format: cell-based, S. epidermidis.
The next series concerns S.s ATCC 15305. In words: MIC, agar dilution, S.s ATCC 15305. Format: cell-based. The following applies: Staphylococcus saprophyticus, ATCC15305; S. saprophyticus ATCC 15305; read-out: MIC.
The next series deals with S.h ATCC 35982. As to the kind of experiment: MIC, agar dilution, S.h ATCC 35982. The class given is cell-based. Conditions: Staphylococcus hominis, ATCC35982; S. hominis ATCC 35982; read-out: MIC.
The test system of another series is MRSA 13-18. As to the kind of experiment: MIC, agar dilution, MRSA 13-18. Format: cell-based. The following applies: Staphylococcus aureus; MRSA 13-18; read-out: MIC.
The test system of another series is MRSA 13-23. In words: MIC, agar dilution, MRSA 13-23. Format: cell-based. The following applies: Staphylococcus aureus; MRSA 13-23; read-out: MIC.
In a further series the test system is MRSA 16-34. As to the kind of experiment: MIC, agar dilution, MRSA 16-34. Format: cell-based. The following applies: Staphylococcus aureus; MRSA 16-34; read-out: MIC.
For another series, the system named is MRSA ATCC 43300. In words: MIC, agar dilution, MRSA ATCC 43300. Conditions: Staphylococcus aureus; MRSA ATCC 43300; read-out: MIC. Format: cell-based.
A further series deals with MRSA ATCC-B AA-1708. As to the kind of experiment: MIC, agar dilution, MRSA ATCC-BAA-1708 (mupA positive). Format: cell-based. Conditions: Staphylococcus aureus; MRSA ATCC-BAA-1708, mupA positive (mupirocin resistance); read-out: MIC.
For the next series, the system named is MRSA ATCC -BAA-976. As to the kind of experiment: MIC, agar dilution, MRSA ATCC-BAA-976 (clindamycin-resistant). Format: cell-based. The following applies: Staphylococcus aureus; MRSA ATCC-BAA-976, clindamycin-resistant S. aureus; read-out: MIC.
Another series has as its system VISA ATCC 700698. In words: MIC, agar dilution, VISA ATCC 700698. Format: cell-based. The following applies: Staphylococcus aureus; VISA ATCC 700698; read-out: MIC.
Another series deals with VISA ATCC 700699. As to the kind of experiment: MIC, agar dilution, VISA ATCC 700699. The class given is cell-based. Conditions: Staphylococcus aureus; VISA ATCC 700699; read-out: MIC.
The next series deals with MRSE 13-3. In words: MIC, agar dilution, MRSE 13-3. The following applies: Staphylococcus epidermidis; MRSE 13-3; read-out: MIC. Format: cell-based, S. epidermidis.
A further series has as its system MRSE 16-5. As to the kind of experiment: MIC, agar dilution, MRSE 16-5. The following applies: Staphylococcus epidermidis; MRSE 16-5; read-out: MIC. The class given is cell-based, S. epidermidis.

For the compound `COc1ccc2c(c[n+]3ccc4cc5c(c6c(Cc7ccccc7)cc2c3c46)OCO5)c1O` (as salt: chloride) [13a, 1,2-Methylenedioxy-8-hydroxy-9-methoxy-13-benzylcycloberberine chloride], the melting point (usually the temperature, or range, at which the solid turns liquid) is 248 to 250 °C.

For `COc1ccc2c(c[n+]3ccc4cc5c(c6c(Cc7ccc(F)cc7)cc2c3c46)OCO5)c1O` (as salt: chloride) [13b, 1,2-Methylenedioxy-8-hydroxy-9-methoxy-13-p-fluorobenzylcycloberberine chloride], the melting point was in the range of 203 to 205 °C.

The compound `COc1ccc2c(c[n+]3ccc4cc5c(c6c(Cc7ccc(F)cc7F)cc2c3c46)OCO5)c1O` (as salt: chloride) [13c, 1,2-Methylenedioxy-8-hydroxy-9-methoxy-13-2′,4′-difluorobenzylcycloberberine chloride] yielded a melting point of 218 to 220 °C.

Compound `COc1ccc2c(c[n+]3ccc4cc5c(c6c(Cc7c(F)cccc7F)cc2c3c46)OCO5)c1O` (as salt: chloride) [13d, 1,2-Methylenedioxy-8-hydroxy-9-methoxy-13-2′,6′-difluorobenzylcycloberberine chloride] registered a melting point of 214 to 216 °C.

Regarding `COc1ccc2c(c[n+]3ccc4cc5c(c6c(Cc7ccc(Cl)cc7)cc2c3c46)OCO5)c1O` (as salt: chloride) [13e, 1,2-Methylenedioxy-8-hydroxy-9-methoxy-13-p-chlorobenzylcycloberberine chloride], the melting point was 199 to 201 °C.

Compound `COc1ccc2c(c[n+]3ccc4cc5c(c6c(Cc7ccc(Br)cc7)cc2c3c46)OCO5)c1O` (as salt: chloride) [13f, 1,2-Methylenedioxy-8-hydroxy-9-methoxy-13-p-bromobenzylcycloberberine chloride] gave a melting point of 207 to 209 °C.

`COc1ccc2c(c[n+]3ccc4cc5c(c6c(Cc7ccccc7C)cc2c3c46)OCO5)c1O` (as salt: chloride) [13g, 1,2-Methylenedioxy-8-hydroxy-9-methoxy-13-o-methylbenzylcycloberberine chloride] gave a melting point of 203 to 205 °C.

On to `COc1ccc2c(c[n+]3ccc4cc5c(c6c(Cc7cccc(C)c7)cc2c3c46)OCO5)c1O` (as salt: chloride) [13h, 1,2-Methylenedioxy-8-hydroxy-9-methoxy-13-m-methylbenzylcycloberberine chloride], for which the melting point is 203 to 205 °C.

`COc1ccc2c(c[n+]3ccc4cc5c(c6c(Cc7ccc(C)cc7)cc2c3c46)OCO5)c1O` (as salt: chloride) [13i, 1,2-Methylenedioxy-8-hydroxy-9-methoxy-13-p-methylbenzylcycloberberine chloride] returned a melting point of 229 to 231 °C.

In turn, `COc1ccc2c(c[n+]3ccc4cc5c(c6c(Cc7cc(C)cc(C)c7)cc2c3c46)OCO5)c1O` (as salt: chloride) [13j, 1,2-Methylenedioxy-8-hydroxy-9-methoxy-13-3′,5′-dimethylbenzylcycloberberine chloride] gave a melting point of 218 to 220 °C.

Compound `COc1ccc2c(c[n+]3ccc4cc5c(c6c(Cc7ccc(C(C)(C)C)cc7)cc2c3c46)OCO5)c1O` (as salt: chloride) [13k, 1,2-Methylenedioxy-8-hydroxy-9-methoxy-13-p-tert-butylmethylbenzylcyclo berberine chloride] showed a melting point of 212 to 214 °C.

The compound `COc1ccc2c(c[n+]3ccc4cc5c(c6c(Cc7ccc(OC(F)(F)F)cc7)cc2c3c46)OCO5)c1O` (as salt: chloride) [13l, 1,2-Methylenedioxy-8-hydroxy-9-methoxy-13-p-trifluoromethoxybenzylcyclo berberine chloride] gave a melting point of 185 to 187 °C.

With `COc1ccc2c(c[n+]3ccc4cc5c(c6c(Cc7ccccc7C#N)cc2c3c46)OCO5)c1O` (as salt: chloride) [13m, 1,2-Methylenedioxy-8-hydroxy-9-methoxy-13-o-cyanbenzylcycloberberine chloride], the melting point fell in the range of 209 to 211 °C.

Turning to `COc1ccc2c(c[n+]3ccc4cc5c(c6c(Cc7cccc(C#N)c7)cc2c3c46)OCO5)c1O` (as salt: chloride) [13n, 1,2-Methylenedioxy-8-hydroxy-9-dimethoxy-13-m-cyanbenzylcycloberberine chloride], the melting point was 189 to 191 °C.

With `COc1ccc2c(c[n+]3ccc4cc5c(c6c(Cc7ccc(C#N)cc7)cc2c3c46)OCO5)c1O` (as salt: chloride) [13o, 1,2-Methylenedioxy-8-hydroxy-9-dimethoxy-13-p-cyanbenzylcycloberberine chloride], the melting point is 197 to 199 °C.

Take `COc1ccc2c(c[n+]3ccc4cc5c(c6c(Cc7ccccc7[N+](=O)[O-])cc2c3c46)OCO5)c1O` (as salt: chloride) [13p, 1,2-Methylenedioxy-8-hydroxy-9-methoxy-13-o-nitrobenzylcycloberberine chloride]: the melting point lay within 199 to 201 °C.

`COc1ccc2c(c[n+]3ccc4cc5c(c6c(Cc7cccc([N+](=O)[O-])c7)cc2c3c46)OCO5)c1O` (as salt: chloride) [13q, 1,2-Methylenedioxy-8-hydroxy-9-methoxy-13-m-nitrobenzylcycloberberine chloride] came in with a melting point of 186 to 188 °C.

Compound `COc1ccc2c(c[n+]3ccc4cc5c(c6c(Cc7ccc([N+](=O)[O-])cc7)cc2c3c46)OCO5)c1O` (as salt: chloride) [13r, 1,2-Methylenedioxy-8-hydroxy-9-methoxy-13-p-nitrobenzylcycloberberine chloride] returned a melting point of 186 to 188 °C.

`COc1ccc2c(c[n+]3ccc4cc5c(c6c(C(C)c7ccccc7)cc2c3c46)OCO5)c1O` (centres unmarked) (as salt: chloride) [13s, 1,2-Methylenedioxy-8-hydroxy-9-methoxy-13-1′-phenylethylcycloberberine chloride] registered a melting point of 213 to 215 °C.

The compound `COC(=O)C(c1ccccc1)c1cc2c3ccc(OC)c(O)c3c[n+]3ccc4cc5c(c1c4c23)OCO5` (centres unmarked) (as salt: chloride) [13t, 1,2-Methylenedioxy-8-hydroxy-9-methoxy-13-2′-methoxy-2′-oxo-1′-phenylethylcycloberberine chloride] registered a melting point of 173 to 175 °C.

Take `CCCc1cc2c3ccc(OC)c(O)c3c[n+]3ccc4cc5c(c1c4c23)OCO5` (as salt: chloride) [15b, 1,2-Methylenedioxy-8-hydroxy-9-methoxy-13-propylcycloberberine chloride]: the melting point was 165 to 167 °C.

The compound `CCCCc1cc2c3ccc(OC)c(O)c3c[n+]3ccc4cc5c(c1c4c23)OCO5` (as salt: chloride) [15c, 1,2-Methylenedioxy-8-hydroxy-9-methoxy-13-butylcycloberberine chloride] returned a melting point of 162 to 164 °C.

`COc1ccc2c(c[n+]3c4c2ccc2c(OC)c(OC)cc(c24)CC3)c1O` (as salt: chloride) [compound 6, 1,2-Dimethoxy-8-hydroxy-9-methoxycycloberberine Chloride]: the melting point is 176 to 178 °C and 180 to 182 °C.

In the case of `COc1ccc2c(c[n+]3c4c2ccc2c(O)c(O)cc(c24)CC3)c1O` (as salt: chloride) [compound 10, 1,2,8-Trihydroxy-9-methoxycycloberberine Chloride], the melting point was in the range of 191 to 193 °C.

On to `COc1ccc2c(c[n+]3ccc4cc5c(c6c(Cc7ccc(F)cc7)cc2c3c46)OCO5)c1O` [13b, 1,2-Methylenedioxy-8-hydroxy-9-methoxy-13-p-fluorobenzylcycloberberine chloride], for which the MIC with MSSA ATCC 29213, in the series on MSSA 15, with MSSA 16-1, with MSSE ATCC 12228, in the series on MSSE 16-5 and in the series on S.s ATCC 15305 was more than 64 µg/mL in each case. Also, the MIC in the series on S.h ATCC 35982, in the series with MRSA 13-18, with MRSA 13-23, with MRSA 16-34, in the series with MRSA ATCC 43300 and in the series on MRSA ATCC-B AA-1708 was more than 64 µg/mL throughout. Further, the MIC in the series on MRSA ATCC -BAA-976, in the series on VISA ATCC 700698, in the series on VISA ATCC 700699, in the series on MRSE 13-3 and in the series on MRSE 16-5 was more than 64 µg/mL throughout.
